Measurements published in US20070275935A1, “Estratriene Derivatives” (priority 2003, published 2007).

How the values were obtained:
[1] = tested on: Human airway smooth muscle (HASM) cells; experiment: Thrombin-induced proliferation of human airway smooth muscle (HASM) cells, cell number after 48 h; format: cell-based; settings: for IC50: Homo sapiens, negative log of the concentration that reduces the thrombin-induced proliferative response by 50%, pIC50 of 4.00 = inactive, read-out: HASM-Thr pIC50 (converted); for HASM- Thr pIC25 / HASM- Thr pIC75: two site model, thrombin-induced proliferation; for HASM- Thr pIC25: first phase (inhibition up to 50%); for HASM- Thr pIC75: second phase (inhibition up to 100%)
Method: Human airway smooth muscle (HASM) cells were cultured from macroscopically normal bronchi (0.5-2 cm diameter) obtained from lung resection or heart-lung transplant specimens provided by the Alfred Hospital (Melbourne) according to methods published in detail previously (Fernandes et al., 1999).
Approximately 0.1 g of smooth muscle was stripped from the wall of the bronchus for each cell culture. Dissected tissue was immersed in Dulbecco's modified Eagle's medium (DMEM) (Flow Laboratories, Scotland), supplemented with 100 U/mL penicillin G (CSL, Australia) and 100 ug/mL streptomycin (CSL, Australia). The tissue was rinsed in phosphate buffered saline (PBS; Oxoid, England) and the airway smooth muscle was chopped into 2 mm^3 pieces and digested for 2 hours in DMEM containing elastase (0.5 mg/mL: Worthington Biochemical, USA) followed by a 12 hour incubation in DMEM containing collagenase (1 mg/mL) (Worthington Biochemical, USA), at 37° C. with agitation.
The resulting cell suspension was centrifuged and washed three times in phosphate buffered saline (PBS). Following the last centrifugation step, the cells were resuspended in 25 mL of DMEM supplemented with L-glutamine (2 mM: Sigma, USA), penicillin G (100 U/mL), streptomycin (100 μg/mL), amphotericin B (2 μg/mL: Wellcome, UK) and heat-inactivated FCS (10% v/v: CSL, Australia) and seeded into 25 cm^2 culture flasks. The primary isolates were incubated for 7 to 14 days to reach confluence.
Cells were harvested weekly by 10 min exposure to trypsin (0.5%: CSL, Australia) and EDTA (1 mM in PBS: BDH, Australia) and passaged at a 1:3 ratio into 75 cm^2 flasks.
The activity of the compounds has been established in cell culture by exploring their effects on mitogen-induced increases in cell number. We investigated the effects of 2MEO and its analogues, 4NO and 4NOM, on the proliferation of HASM cells in response to the proliferative stimulus of either thrombin of basic fibroblast growth factor (bFGF). Cells were seeded onto 6-well plates at a density of 1.5×10^4 cells cm^2, made quiescent by removal of serum-containing media for 24 hours and then stimulated for 48 h with either thrombin (0.3 U/ml) or bFGF (300 pM). The test compounds were pre-incubated with HASM cells for 30 minutes before the addition of thrombin. At the end of the 48 hour incubation period, cells were detached from the culture plate by trypsin (0.5% w/v in PBS containing 1 mM EDTA), incubated for 5 minutes at ambient temperature in PBS containing 0.5% (w/v) trypan blue, washed twice (2% FCS in PBS), isolated by centrifugation (12,000×g, 5 min) and resuspended in 200 μl 2% FCS in PBS for counting in a haemocytometer chamber.
Data are expressed as a percentage of the cell number in vehicle treated wells and are presented as the mean and standard error of the mean.
The potency of the compounds in regulating thrombin-induced proliferation of human airway smooth muscle (HASM) was assessed in cells maintained in culture as described above. The potencies are presented as pIC50 values (Column A of Table 4) denoting the negative log of the concentration that reduces the proliferative response by 50%. […] When the single phase model was determined to be more appropriate, the values of pIC25 and pIC75 were not calculated or shown in the table.

Estrogen Receptor (ER) = target: T1, Estrogen Receptor (ER) (Rattus norvegicus, UniProt P06211); experiment: Estrogen receptor binding assay, 3H-estradiol displacement from rat uterine cytosol; settings: 3H-estradiol displacement, cytosolic preparations of rat uterus; pIC50 of 4.00 = inactive; read-out: ER-RLB pIC50 (converted)
T1 construct: using rat uterine cytosol as a source of ER; from tissue; host or cells: rat uterus, cytosol fraction (30000 x g supernatant)
T1 sequence (P06211 1-600): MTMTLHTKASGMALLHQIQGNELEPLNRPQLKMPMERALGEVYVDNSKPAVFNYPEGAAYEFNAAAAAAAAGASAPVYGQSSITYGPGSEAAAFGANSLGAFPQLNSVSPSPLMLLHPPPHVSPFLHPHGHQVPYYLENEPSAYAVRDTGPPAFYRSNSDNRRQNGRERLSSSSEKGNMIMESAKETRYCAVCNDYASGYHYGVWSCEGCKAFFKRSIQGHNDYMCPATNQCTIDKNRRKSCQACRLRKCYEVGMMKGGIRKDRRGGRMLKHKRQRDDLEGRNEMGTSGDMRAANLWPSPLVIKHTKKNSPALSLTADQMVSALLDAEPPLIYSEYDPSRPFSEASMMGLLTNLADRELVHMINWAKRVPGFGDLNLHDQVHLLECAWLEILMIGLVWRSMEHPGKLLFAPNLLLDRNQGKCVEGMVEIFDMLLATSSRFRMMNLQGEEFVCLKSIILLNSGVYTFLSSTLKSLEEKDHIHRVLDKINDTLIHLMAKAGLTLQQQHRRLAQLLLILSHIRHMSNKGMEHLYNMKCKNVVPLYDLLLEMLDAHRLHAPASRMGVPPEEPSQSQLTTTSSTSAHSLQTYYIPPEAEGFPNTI
Method: Uteri (6-10 per batch) were isolated from Brown Norway rats (250-350g), washed free from blood in saline and homogenised in 10 mM Tris buffer (pH 7.4, 1.5 mM EDTA, 10% w/v glycerol, 1 mM phenylmethylsulfonylfluoride) using an Ultra Turrax homogeniser for 3 by 15 s bursts with intervals of 1 min on ice.
Nuclear material and cellular debris were removed by centrifugation at 750×g at 4° C. for 10 min (Sorvall RT7); the cytosol component was prepared by centrifugation at 30000×g for 120 min at 4° C. in a Beckman JM1 centrifuge. The cytosol was diluted to approximately 1 mg/ml protein (rat uterine extract) determined using the Bradford method (Biorad).
Separation of bound from free radioligand was achieved by the addition of 500 μL of dextran-coated charcoal (400 mg dextran clinical grade C and 2g of charcoal, Norit A in 100 mL of Tris buffer) and centrifugation at 4° C. in a Sorval RT7 at 2000×g for 10 min.

[2] = tested on: type II airway epithelial cell line, A549; experiment: Proliferation of A549 cells in response to 5% FCS; format: cell-based, human; settings: Homo sapiens, A549; proliferation in response to 5% FCS; pIC50 of 4.00 = inactive; read-out: A549 PIC50 (converted)
Method: The effects of 4NO were evaluated in a number of non-smooth muscle cell types including the type II airway epithelial cell line, A549 (ATCC accession number ATCC CCL-185 Lung carcinoma human) (FIG. 2); the human breast tumour cell line, MCF7, (ATTC accession number ATCC HTB-22 breast adenocarcinoma, human) which expresses the estrogen receptor (FIG. 3); and in bovine aortic endothelial cells (BAEC) (FIG. 4).
The effects of test compounds were examined on proliferation of A549 cells in response to 5% fetal calf serum (FCS). Analogues were pre-incubated with A549 cells for 30 min before the addition of FCS. The incubation continued for 48 h before cell enumeration. Data are expressed as a percentage of the cell number in vehicle treated wells and are presented as the mean and standard error of the mean. Similarly the effects of 2MEO and 4NO on proliferation of MCF7 in response to 5% FCS or epidermal growth factor (EGF, 300 pM) were examined, as were the effects of 2MEO and 4NO on proliferation of BAEC in response to 5% FCS. The incubation parameters were the same as described above and results are presented as the mean and standard error of the mean.
This assay was also used to evaluate the ability of other compounds to inhibit the proliferation of non-smooth muscle cells MCF7 and A549 (described above) in response to 5% FCS. The results of this assay are presented in Table 4 (columns G and H respectively). The potency of the compounds was considerably less in inhibiting proliferation of these cell lines than it was for HASM. These observations support the contention that there are cell type-specific targets for the actions of these compounds. Such assays may also be adopted to examine the effect of other disclosed compounds on these cells or on other non-smooth muscle cells of interest.

[3] = tested on: GM-CSF production by Human Airway Smooth Muscle Cells; experiment: Interleukin-1α-mediated GM-CSF production by HASM cells (ELISA); format: cell-based; settings: inhibition of interleukin-1α (1 ng/ml)-mediated GM-CSF production; concentration not given; * not defined
Pulmonary fibroblasts = experiment: bFGF-induced proliferation of human pulmonary fibroblasts; format: cell-based; settings: inhibition of bFGF (300 pM)-induced proliferation, mean and SEM, minimum 3 experiments; 1 μM; * not defined
Method: Samples of parenchyma from human lung transplant recipients were dissected away from the pleura, chopped into fragments of less than 1 mm^2 and allowed to adhere to plastic culture dishes in a minimal volume of DMEM containing serum (10%) and antibiotics (as used for HASM culture). After the tissue fragments had adhered to the base of the dish additional medium was added. Medium was changed twice weekly until an explant culture formed, at which time the tissue fragments were removed and the cells were passaged in a 1:3 split ratio by exposure to trypsin weekly to produce pulmonary fibroblast cultures.
Pulmonary fibroblasts were cultured in DMEM, serum-deprived for 24 h, in the presence or absence of the test compounds, and then stimulated with 300 pM bFGF for 48 h before harvest and counting of viable cells. An increase pulmonary fibroblast cell number was prevented by 4NOM over the concentration range of 1 to 1000 nM.
A range of the disclosed compounds was subsequently examined using the above assay system, and the results are summarized in Column E of Table 4. […] The proliferation of parenchymal fibroblasts is important in the development of pulmonary fibrosis.

SMILES	IC50 [1] [µM]	HASM- Thr pIC25 [1]	HASM- Thr pIC75 [1]	IC50 (Estrogen Receptor (ER)) [µM]	IC50 [2] [µM]	HASM - GM-CSF [3]	pFib - bFGF (Pulmonary fibroblasts)
COc1ccc(CO/N=C2\C[C@@H]3[C@H](CC[C@]4(C)[C@@H](O)CC[C@@H]34)c3cc(OC)c(O)cc32)cc1 [CP-DM-4-5, 2-methoxy-6-(4-methoxybenzyloxy)-iminoestradiol]	0.135	10.46	5.27	0.794	5.01	–	–
COc1cc2c(cc1O)/C(=N/OCc1ccc(C(C)C)cc1)C[C@@H]1[C@@H]2CC[C@]2(C)/C(=N/O)CC[C@@H]12 [CP-DM-4-77, 2-methoxy-6-(4-isopropylbenzyloxy)iminoestrone-17-oxime]	3.02	–	–	–	3.16	26 ± 13	–
COc1cc2c(cc1O)/C(=N/OCc1ccc(OC(F)(F)F)cc1)C[C@@H]1[C@@H]2CC[C@]2(C)/C(=N/O)CC[C@@H]12 [CP-DM-4-68, 2-methoxy-6-(4-trifluoromethoxybenzyloxy)iminoestrone-17-oxime]	1.82	7.91	5.00	–	–	8 ± 13	–
COc1cc2c(cc1O)/C(=N/OCc1cc(F)cc(F)c1)C[C@@H]1[C@@H]2CC[C@]2(C)/C(=N/O)CC[C@@H]12 [CP-DM-4-36, 6-(3,5-difluorobenzyloxy)imino-2-methoxyestrone-17-oxime]	0.129	7.91	5.69	20	10	–	–
COc1cc2c(cc1O)/C(=N/OCc1cccc([N+](=O)[O-])c1)C[C@@H]1[C@@H]2CC[C@]2(C)[C@@H](O)CC[C@@H]12 [CP-DM-3-106, 2-methoxy-6-(3-nitrobenzyloxy)iminoestradiol]	0.0251	9.35	6.36	0.178	7.59	–	–
COc1cc2c(cc1O)/C(=N/OCc1ccc([N+](=O)[O-])cc1)C[C@@H]1[C@@H]2CC[C@]2(C)[C@@H](OC(C)=O)CC[C@@H]12 [CP-DM-4-91, 2-Methoxy-6-(4-nitrobenzyloxy)iminoestradiol-17-acetate]	6.31	–	–	–	10	–	–
COc1cc2c(cc1O)/C(=N/OCc1cccc([N+](=O)[O-])c1)C[C@@H]1[C@@H]2CC[C@]2(C)/C(=N/O)CC[C@@H]12 [CP-DM-3-105, 2-methoxy-6-(3-nitrobenzyloxy)iminoestrone-17-oxime]	0.1	8.85	5.59	25.1	5.13	–	–
COc1cc2c(cc1O)/C(=N/OCc1ccc(C)cc1)C[C@@H]1[C@@H]2CC[C@]2(C)[C@@H](O)CC[C@@H]12 [CP-DM-4-78, 2-methoxy-6-(4-methylbenzyloxy)iminoestradiol]	1	–	–	0.229	10	35 ± 9*	–
COc1cc2c(cc1O)/C(=N/OCc1ccc(SC(F)(F)F)cc1)C[C@@H]1[C@@H]2CC[C@]2(C)/C(=N/O)CC[C@@H]12 [CP-DM-4-69, 2-methoxy-6-(4-trifluoromethylthiobenzyloxy)iminoestrone-17-oxime]	–	4.00	4.00	–	–	–	87 ± 13*
COc1cc2c(cc1O)/C(=N/OCc1ccc(C#N)cc1)C[C@@H]1[C@@H]2CC[C@]2(C)/C(=N/O)CC[C@@H]12 [CP-DM-4-38, 6-(4-cyanobenzyloxy)imino-2-methoxyestrone-17-oxime]	–	4.00	4.00	–	–	–	26 ± 26
COc1cc2c(cc1O)CC[C@@H]1[C@@H]2CC[C@]2(C)/C(=N/OCc3ccc([N+](=O)[O-])cc3)CC[C@@H]12 [CP-DM-3-103, 2-methoxyestrone-17-(4-nitrobenzyl)oxime]	3.16	–	–	–	40.7	either did not inhibit or produced less inhibition	–
